Where a name gives a salt, the structure may show the parent alone.
Test system: mice
Experiment: SmartCube in vivo neuropharmacological behavioral assay
Conditions: for minimal effective dose: Mus musculus, ip, 0.25 h, dose having 50% or more total activity in SmartCube, i.p., read-out: MED (minimal effective dose); for AD: antidepressant (percent probability) / AG: analgesic (percent probability) / AP: antipsychotic (percent probability) / AX: anxiolytic (percent probability) / CE: cognitive enhancer (percent probability) / HA: hallucinogenic (percent probability) / MS: mood stabilizer (percent probability) / PS (percent probability) / SD: sedative hypnotic (percent probability) / SE: side effects (percent probability) / UN: uncharacterized CNS activity (percent probability) / XG: anxiogenic (percent probability): SmartCube, i.p. 15 min before test, result at the MED
Outline: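 Mice dosed i.p. in NMP (Pharmasolve) 15 min before automated video behavioral testing at several doses (e.g., 0.3-30 mpk). Signatures compared to reference drug classes giving per-class probabilities (0-100); MED is the lowest dose with ≥50% total activity.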

| Compound | minimal effective dose | AD: antidepressant (percent probability) | AG: analgesic (percent probability) | AP: antipsychotic (percent probability) | AX: anxiolytic (percent probability) | CE: cognitive enhancer (percent probability) | HA: hallucinogenic (percent probability) | MS: mood stabilizer (percent probability) | PS (percent probability) | SD: sedative hypnotic (percent probability) | SE: side effects (percent probability) | UN: uncharacterized CNS activity (percent probability) | XG: anxiogenic (percent probability) |
| --- | --- | --- | --- | --- | --- | --- | --- | --- | --- | --- | --- | --- | --- |
| c1ccc2c(c1)C1CCCC2N1C1CCCC1 [Compound 4, 12-Cyclopentyl-12-azatricyclo[6.3.1.0^2,7]dodeca-2,4,6-triene hydrochloride] | 1 to 10 mg/kg | +++ (25% ≤ X < 50%) | ++ (5% ≤ X < 25%) | + (LOQ ≤ X < 5%) | ++ (5% ≤ X < 25%) | + (LOQ ≤ X < 5%) | + (LOQ ≤ X < 5%) | + (LOQ ≤ X < 5%) | ++ (5% ≤ X < 25%) | + (LOQ ≤ X < 5%) | + (LOQ ≤ X < 5%) | + (LOQ ≤ X < 5%) | + (LOQ ≤ X < 5%) |
| COCC(C)N1C2CCCC1c1ccccc12 (stereo not shown) [Compound 18, 12-(1-Methoxypropan-2-yl)-12-azatricyclo[6.3.1.0^2,7]dodeca-2,4,6-triene] | 10 to 30 mg/kg | ++++ (50% ≤ X < 100%) | + (LOQ ≤ X < 5%) | + (LOQ ≤ X < 5%) | ++ (5% ≤ X < 25%) | + (LOQ ≤ X < 5%) | + (LOQ ≤ X < 5%) | + (LOQ ≤ X < 5%) | + (LOQ ≤ X < 5%) | + (LOQ ≤ X < 5%) | + (LOQ ≤ X < 5%) | + (LOQ ≤ X < 5%) | + (LOQ ≤ X < 5%) |
| CCCC(C)N1C2CCCC1c1ccccc12 (stereo not shown) [Compound 16, 12-(Pentan-2-yl)-12-azatricyclo[6.3.1.0^20.7]dodeca-2,4,6-triene hydrochloride] | 10 to 30 mg/kg | +++ (25% ≤ X < 50%) | ++ (5% ≤ X < 25%) | + (LOQ ≤ X < 5%) | ++ (5% ≤ X < 25%) | + (LOQ ≤ X < 5%) | ++ (5% ≤ X < 25%) | + (LOQ ≤ X < 5%) | + (LOQ ≤ X < 5%) | + (LOQ ≤ X < 5%) | + (LOQ ≤ X < 5%) | ++ (5% ≤ X < 25%) | + (LOQ ≤ X < 5%) |
| CO[C@H]1CC[C@H]2c3ccccc3[C@@H]1N2C(C)C (stereo in doubt) [Compound 28, 9-methoxy-12-(propan-2-yl)-12-azatricyclo[6.3.1.0^2,7]dodeca-2,4,6-triene hydrochloride] | 10 to 30 mg/kg | ++ (5% ≤ X < 25%) | ++ (5% ≤ X < 25%) | + (LOQ ≤ X < 5%) | ++ (5% ≤ X < 25%) | + (LOQ ≤ X < 5%) | + (LOQ ≤ X < 5%) | + (LOQ ≤ X < 5%) | ++ (5% ≤ X < 25%) | + (LOQ ≤ X < 5%) | + (LOQ ≤ X < 5%) | +++ (25% ≤ X < 50%) | + (LOQ ≤ X < 5%) |
| CC1CC2c3ccccc3C(C1)N2C1CCC1 (stereo not shown) [Compound 36, 12-Cyclobutyl-10-methyl-12-azatricyclo[6.3.1.0^2,7]dodeca-2,4,6-triene hydrochloride] | 1 to 10 mg/kg | ++++ (50% ≤ X < 100%) | + (LOQ ≤ X < 5%) | + (LOQ ≤ X < 5%) | + (LOQ ≤ X < 5%) | + (LOQ ≤ X < 5%) | ++ (5% ≤ X < 25%) | + (LOQ ≤ X < 5%) | + (LOQ ≤ X < 5%) | + (LOQ ≤ X < 5%) | + (LOQ ≤ X < 5%) | ++ (5% ≤ X < 25%) | + (LOQ ≤ X < 5%) |
| CC(C)N1C2CCCC1c1cc(F)c(F)cc12 [Compound 41, 4,5-Difluoro-12-(propan-2-yl)-12-azatricyclo[6.3.1.0^2,7]dodeca-2,4,6-triene] | 10 to 30 mg/kg | ++ (5% ≤ X < 25%) | ++ (5% ≤ X < 25%) | ++ (5% ≤ X < 25%) | ++ (5% ≤ X < 25%) | ++ (5% ≤ X < 25%) | + (LOQ ≤ X < 5%) | + (LOQ ≤ X < 5%) | + (LOQ ≤ X < 5%) | + (LOQ ≤ X < 5%) | + (LOQ ≤ X < 5%) | +++ (25% ≤ X < 50%) | + (LOQ ≤ X < 5%) |
| CC(C1CC1)N1C2CCCC1c1ccccc12 (stereo not shown) [Compound 21, 12-(1-Cyclopropylethyl)-12-azatricyclo[6.3.1.0]dodeca-2,4,6-triene hydrochloride] | 0.1 to 1 mg/kg | +++ (25% ≤ X < 50%) | ++ (5% ≤ X < 25%) | + (LOQ ≤ X < 5%) | ++ (5% ≤ X < 25%) | + (LOQ ≤ X < 5%) | + (LOQ ≤ X < 5%) | + (LOQ ≤ X < 5%) | + (LOQ ≤ X < 5%) | + (LOQ ≤ X < 5%) | + (LOQ ≤ X < 5%) | + (LOQ ≤ X < 5%) | + (LOQ ≤ X < 5%) |
| FC1CCC2NC1c1ccccc12 (stereo not shown) [Compound 30, 9-Fluoro-12-azatricyclo[6.3.1.0^2,7]dodeca-2,4,6-triene hydrochloride] | > 30 mg/kg | + (LOQ ≤ X < 5%) | + (LOQ ≤ X < 5%) | + (LOQ ≤ X < 5%) | ++ (5% ≤ X < 25%) | + (LOQ ≤ X < 5%) | + (LOQ ≤ X < 5%) | + (LOQ ≤ X < 5%) | + (LOQ ≤ X < 5%) | + (LOQ ≤ X < 5%) | + (LOQ ≤ X < 5%) | + (LOQ ≤ X < 5%) | + (LOQ ≤ X < 5%) |
| CCC(C)N1C2CCCC1c1ccccc12 (stereo not shown) [Compound 12, 12-(Butan-2-yl)-12-azatricyclo[6.3.1.0^2,7]dodeca-2,4,6-triene] | 1 to 10 mg/kg | ++ (5% ≤ X < 25%) | + (LOQ ≤ X < 5%) | + (LOQ ≤ X < 5%) | ++ (5% ≤ X < 25%) | + (LOQ ≤ X < 5%) | + (LOQ ≤ X < 5%) | + (LOQ ≤ X < 5%) | + (LOQ ≤ X < 5%) | + (LOQ ≤ X < 5%) | + (LOQ ≤ X < 5%) | +++ (25% ≤ X < 50%) | + (LOQ ≤ X < 5%) |
| CC(CF)N1C2CCCC1c1ccccc12 (stereo not shown) [Compound 19, 12-(1-Fluoropropan-2-yl)-12-azatricyclo[6.3.1.0^2,7]dodeca-2,4,6-triene hydrochloride] | 10 to 30 mg/kg | ++ (5% ≤ X < 25%) | + (LOQ ≤ X < 5%) | + (LOQ ≤ X < 5%) | ++++ (50% ≤ X < 100%) | + (LOQ ≤ X < 5%) | + (LOQ ≤ X < 5%) | + (LOQ ≤ X < 5%) | + (LOQ ≤ X < 5%) | + (LOQ ≤ X < 5%) | + (LOQ ≤ X < 5%) | + (LOQ ≤ X < 5%) | + (LOQ ≤ X < 5%) |

— patent US20230116114A1, “COMPOUNDS AND COMPOSITIONS FOR TREATING CNS DISORDERS” (Blue Oak Pharmaceuticals, Inc., priority 2020, published 2023)
